Experimental findings from ChEMBL document CHEMBL3124829, “Discovery of SCH 900188: A Potent Hepatitis C Virus NS5B Polymerase Inhibitor Prodrug As a Development Candidate” (ACS Med Chem Lett, 2014) are described below.

One may read the AUC as concentration integrated over time. A word on the Cmax: it is the highest concentration seen after dosing. By IC50 is commonly meant the point on the concentration scale where inhibition reaches its midpoint. What is called solubility is the concentration that dissolves in the medium under given conditions. The EC50 is the concentration giving half of the maximal effect.

Data set [1] concerns Canis familiaris. Nature of the data set: AUC (0 to 24 hrs) in dog assessed as 4-Fluoro-6-((7-fluoro-4-oxo-3,4-dihydroquinazolin-6-yl)methyl)-8-(2-oxo-1,2-dihydropyridin-3-yl)-6H-furo[2,3-e]indole-7-carboxylic acid at 3 mg/kg, po. The data set is classed as ADME, organism-based, Canis lupus familiaris, Plasma. More on the design: time < 24 hr, dose 3 mg/kg, route oral. The note with it: in vivo.

Data set [2] concerns Rhesus monkey. In words: Half life in monkey assessed as 4-Fluoro-6-((7-fluoro-4-oxo-3,4-dihydroquinazolin-6-yl)methyl)-8-(2-oxo-1,2-dihydropyridin-3-yl)-6H-furo[2,3-e]indole-7-carboxylic acid at 1 mg/kg, iv. The class given is ADME, organism-based, Macaca mulatta. More on the design: dose 1 mg/kg, route intravenous. The note with it: in vivo.
The species named for data set [3] is Rattus norvegicus. Nature of the data set: Cmax in rat assessed as 4-Fluoro-6-((7-fluoro-4-oxo-3,4-dihydroquinazolin-6-yl)methyl)-8-(2-oxo-1,2-dihydropyridin-3-yl)-6H-furo[2,3-e]indole-7-carboxylic acid. The class given is ADME, organism-based. The note with it: in vivo.
The nature of data set [4]: Mutagenic activity in micronucleus (unknown origin). The class given is ADME.
Data set [5] deals with Canis familiaris. In words: Half life in dog assessed as 4-Fluoro-6-((7-fluoro-4-oxo-3,4-dihydroquinazolin-6-yl)methyl)-8-(2-oxo-1,2-dihydropyridin-3-yl)-6H-furo[2,3-e]indole-7-carboxylic acid at 1 mg/kg, iv. The conditions noted are these: in vivo. The class given is ADME, organism-based, Canis lupus familiaris. More on the design: dose 1 mg/kg, route intravenous.
Data set [6] deals with Rhesus monkey. Nature of the data set: Cmax in monkey assessed as 4-Fluoro-6-((7-fluoro-4-oxo-3,4-dihydroquinazolin-6-yl)methyl)-8-(2-oxo-1,2-dihydropyridin-3-yl)-6H-furo[2,3-e]indole-7-carboxylic acid. The class given is ADME, organism-based, Macaca mulatta. The note with it: in vivo.
Data set [7] relates to Rattus norvegicus. Nature of the data set: Half life in rat assessed as 4-Fluoro-6-((7-fluoro-4-oxo-3,4-dihydroquinazolin-6-yl)methyl)-8-(2-oxo-1,2-dihydropyridin-3-yl)-6H-furo[2,3-e]indole-7-carboxylic acid at 3 mg/kg, iv. The class given is ADME, organism-based. More on the design: dose 3 mg/kg, route intravenous. The note with it: in vivo.
In data set [8] the test system is Rattus norvegicus. Nature of the data set: AUC (0 to 24 hrs) in rat assessed as 4-Fluoro-6-((7-fluoro-4-oxo-3,4-dihydroquinazolin-6-yl)methyl)-8-(2-oxo-1,2-dihydropyridin-3-yl)-6H-furo[2,3-e]indole-7-carboxylic acid at 10 mg/kg, po. The arrangement: time < 24 hr, dose 10 mg/kg, route oral. The conditions noted are these: in vivo. The class given is ADME, organism-based, Plasma.

Data set [9] relates to Rattus norvegicus. In words: Oral bioavailability in rat assessed as 4-Fluoro-6-((7-fluoro-4-oxo-3,4-dihydroquinazolin-6-yl)methyl)-8-(2-oxo-1,2-dihydropyridin-3-yl)-6H-furo[2,3-e]indole-7-carboxylic acid. The note with it: in vivo. The data set is classed as ADME, organism-based.
Data set [10] has as its system RNA-directed RNA polymerase (Hepacivirus hominis), O39930 [M414T]. In words: Inhibition of HCV NS5B RdRp M414T mutant active site.
Data set [11] relates to Canis familiaris. In words: Oral bioavailability in dog assessed as 4-Fluoro-6-((7-fluoro-4-oxo-3,4-dihydroquinazolin-6-yl)methyl)-8-(2-oxo-1,2-dihydropyridin-3-yl)-6H-furo[2,3-e]indole-7-carboxylic acid. The note with it: in vivo. The data set is classed as ADME, organism-based, Canis lupus familiaris.
For data set [12], the system named is RNA-directed RNA polymerase (Hepacivirus hominis), O39930 [C316Y]. In words: Inhibition of HCV NS5B RdRp C316Y mutant palm allosteric site.
Data set [13] deals with Salmonella typhimurium. In words: Mutagenic activity in Salmonella typhimurium by mini Ames test. The data set is classed as toxicity, organism-based. The note with it: salmonella enterica subsp. enterica serovar typhimurium.
For data set [14], the system named is RNA-directed RNA polymerase (Hepacivirus hominis), O39930 [G554D]. Nature of the data set: Inhibition of HCV NS5B RdRp G554D mutant palm allosteric site.
In data set [15] the test system is RNA-directed RNA polymerase (Hepacivirus hominis), O39930 [M414T]. Nature of the data set: Inhibition of HCV NS5B RdRp M414T mutant palm allosteric site.
Data set [16] can be described thus: Inhibition of HCV genotype 1b C-terminal polyhistidine-tagged NS5B Cdelta21 RdRp expressed in Escherichia coli using DCoH75 as template assessed as incorporation of [33P]-CTP in polynucleotide sequence after 2 hrs by scintillation counting analysis. More on the design: species or system Hepatitis C virus subtype 1b.
The species named for data set [17] is Rattus norvegicus. Nature of the data set: Ratio of drug level from liver to plasma in rat assessed as 4-Fluoro-6-((7-fluoro-4-oxo-3,4-dihydroquinazolin-6-yl)methyl)-8-(2-oxo-1,2-dihydropyridin-3-yl)-6H-furo[2,3-e]indole-7-carboxylic acid after 6 hrs. The note with it: other tissue.
Data set [18] is filed under the species Canis familiaris. Nature of the data set: Cmax in dog assessed as 4-Fluoro-6-((7-fluoro-4-oxo-3,4-dihydroquinazolin-6-yl)methyl)-8-(2-oxo-1,2-dihydropyridin-3-yl)-6H-furo[2,3-e]indole-7-carboxylic acid. The data set is classed as ADME, organism-based, Canis lupus familiaris. The conditions noted are these: in vivo.
Data set [19] concerns Rhesus monkey. In words: AUC (0 to 24 hrs) in monkey assessed as 4-Fluoro-6-((7-fluoro-4-oxo-3,4-dihydroquinazolin-6-yl)methyl)-8-(2-oxo-1,2-dihydropyridin-3-yl)-6H-furo[2,3-e]indole-7-carboxylic acid at 3 mg/kg, po. The class given is ADME, organism-based, Macaca mulatta, Plasma. The arrangement: time < 24 hr, dose 3 mg/kg, route oral. The conditions noted are these: in vivo.

Data set [20] is described as follows: Solubility of the compound at pH 3. The data set is classed as physicochemical. The note with it: buffer.
The test system of data set [21] is RNA-directed RNA polymerase (Hepacivirus hominis), O39930 [C316Y]. Nature of the data set: Inhibition of HCV NS5B RdRp C316Y mutant active site.
The subject of data set [22] is Hepatitis C virus. Nature of the data set: Antiviral activity against HCV infected in human hepatoma cells assessed as inhibition of viral RNA replication after 3 days by real time PCR analysis. The class given is functional, organism-based, Hepacivirus hominis. The note with it: 72 h. For orientation: Real-time PCR tracks product formation cycle by cycle.
In data set [23] the test system is RNA-directed RNA polymerase (Hepacivirus hominis), O39930 [G554D]. In words: Inhibition of HCV NS5B RdRp G554D mutant active site.
The subject of data set [24] is Rhesus monkey. Nature of the data set: Oral bioavailability in monkey assessed as 4-Fluoro-6-((7-fluoro-4-oxo-3,4-dihydroquinazolin-6-yl)methyl)-8-(2-oxo-1,2-dihydropyridin-3-yl)-6H-furo[2,3-e]indole-7-carboxylic acid. The data set is classed as ADME, organism-based, Macaca mulatta. The note with it: in vivo.

SMILES strings stand for the structures. Activity calls are given as the source filed them. The calls are words filed in the database; no cut-off is given here.

RNA-directed RNA polymerase (Hepacivirus hominis), O39930 [G554D], sequence (O39930 entry or part of it G554D): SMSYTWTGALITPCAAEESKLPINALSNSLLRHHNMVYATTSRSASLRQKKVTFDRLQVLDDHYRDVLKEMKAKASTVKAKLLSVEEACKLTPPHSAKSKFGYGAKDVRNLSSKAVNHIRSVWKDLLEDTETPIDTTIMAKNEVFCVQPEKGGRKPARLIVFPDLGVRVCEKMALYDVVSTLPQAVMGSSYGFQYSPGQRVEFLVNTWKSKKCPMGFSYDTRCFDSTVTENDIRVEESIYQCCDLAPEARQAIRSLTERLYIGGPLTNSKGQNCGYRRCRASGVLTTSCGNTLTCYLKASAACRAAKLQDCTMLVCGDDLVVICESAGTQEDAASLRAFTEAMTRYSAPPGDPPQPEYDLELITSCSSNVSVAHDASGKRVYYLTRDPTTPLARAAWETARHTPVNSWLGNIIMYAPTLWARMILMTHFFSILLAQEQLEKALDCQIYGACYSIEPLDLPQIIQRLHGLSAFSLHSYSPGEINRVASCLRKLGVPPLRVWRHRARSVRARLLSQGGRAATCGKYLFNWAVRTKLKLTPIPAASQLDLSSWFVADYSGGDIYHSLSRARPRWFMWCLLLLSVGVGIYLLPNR
RNA-directed RNA polymerase (Hepacivirus hominis), O39930 [C316Y], sequence (O39930 entry or part of it C316Y): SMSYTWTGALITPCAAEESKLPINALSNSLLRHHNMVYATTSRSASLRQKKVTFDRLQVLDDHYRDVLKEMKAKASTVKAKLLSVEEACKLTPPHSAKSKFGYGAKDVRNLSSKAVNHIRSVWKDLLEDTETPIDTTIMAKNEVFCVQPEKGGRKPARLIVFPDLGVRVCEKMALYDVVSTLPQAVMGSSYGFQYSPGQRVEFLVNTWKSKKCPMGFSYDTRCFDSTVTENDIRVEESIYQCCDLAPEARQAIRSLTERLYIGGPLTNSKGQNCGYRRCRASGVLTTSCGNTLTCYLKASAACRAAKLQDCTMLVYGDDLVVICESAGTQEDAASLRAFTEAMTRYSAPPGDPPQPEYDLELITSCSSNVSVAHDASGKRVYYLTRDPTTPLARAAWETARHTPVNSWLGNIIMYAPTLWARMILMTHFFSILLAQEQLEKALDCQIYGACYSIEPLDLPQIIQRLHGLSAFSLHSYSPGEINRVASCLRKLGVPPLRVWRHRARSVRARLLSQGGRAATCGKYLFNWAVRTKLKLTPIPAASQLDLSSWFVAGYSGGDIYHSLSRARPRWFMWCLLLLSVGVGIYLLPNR
RNA-directed RNA polymerase (Hepacivirus hominis), O39930 [M414T], sequence (O39930 entry or part of it M414T): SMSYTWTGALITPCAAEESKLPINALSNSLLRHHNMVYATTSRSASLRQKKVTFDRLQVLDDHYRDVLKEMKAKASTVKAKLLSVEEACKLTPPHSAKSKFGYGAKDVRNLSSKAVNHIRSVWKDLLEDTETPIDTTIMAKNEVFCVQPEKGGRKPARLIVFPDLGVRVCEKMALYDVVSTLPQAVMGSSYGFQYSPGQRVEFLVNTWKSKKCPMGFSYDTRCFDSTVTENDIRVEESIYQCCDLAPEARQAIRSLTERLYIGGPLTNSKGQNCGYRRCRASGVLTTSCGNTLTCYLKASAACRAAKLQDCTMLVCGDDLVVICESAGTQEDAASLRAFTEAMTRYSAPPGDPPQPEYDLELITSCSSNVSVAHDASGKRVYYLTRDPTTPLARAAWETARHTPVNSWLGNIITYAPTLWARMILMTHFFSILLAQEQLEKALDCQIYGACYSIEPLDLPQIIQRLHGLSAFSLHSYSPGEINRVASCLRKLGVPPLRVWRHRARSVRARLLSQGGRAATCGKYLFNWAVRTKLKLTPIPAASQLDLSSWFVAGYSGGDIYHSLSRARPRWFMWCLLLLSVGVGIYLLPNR

For `CN(C)CCOC(=O)c1c(-c2ccc[nH]c2=O)c2c3occc3c(F)cc2n1Cc1cc2c(=O)[nH]cnc2cc1F.Cl`, the AUC came to 2.4 µM·h in data set [1], 22 µM·h in data set [8] and 144 µM·h in data set [19]. Further, the t1/2 in [2] was found to be 22 h; in data set [5] it was 4 h; in [7], 11 h. Further, the Cmax was 2100 nM in data set [3], 4100 nM in data set [6] and 800 nM in [18]. In addition, the Activity entry in data set [4] and in [13] was “Non-toxic” throughout. The F is 2% in [9], 29% in data set [11] and 63% in data set [24]. The inhibition entry in data set [10], in data set [21] and in data set [23] was “Active” in each case. Also, the inhibition entry in data set [12], in [14] and in data set [15] was “inactive” each time. Moreover, in data set [16], the IC50 worked out at 150 nM. Also, the Ratio in [17] is listed as 0.5. This molecule also returned a solubility in data set [20] of 900 µM. For the same molecule, the EC50 in [22] was 5 nM.
